In PubChem BioAssay (NCI) one finds TGI data, which are given here for 18 compounds.

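96-well plates; 48 h exposure; 5 concentrations. Endpoints by linear interpolation between flanking doses. Not reached: highest tested concentration assigned. TGI: concentration producing complete growth inhibition.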

What all share (assay): inhibition of tumour cell growth, NCI panel, 48 h
The test system of assay [1] is COLO 205 colon.
Assay [2] deals with LOX IMVI melanoma.
Assay [3] deals with SR leukemia.
The test system of assay [4] is ACHN renal.
In assay [5] the test system is IGROV1 ovarian.
Assay [6] relates to EKVX NSCLC.
Assay [7] relates to SK-MEL-5 melanoma.
Assay [8] has as its system KM12 colon.
For assay [9], the system named is NCI-H23 lung.
Assay [10] deals with MCF7 breast.
The test system of assay [11] is UO-31 renal.
Assay [12] relates to SN12C renal.
Assay [13] concerns NCI-H460 lung.
In assay [14] the test system is HCT-116 colon.
Assay [15] deals with OVCAR-4 ovarian.
Assay [16] relates to MALME-3M melanoma.
The subject of assay [17] is M14 melanoma.
The subject of assay [18] is NCI-H522 lung.

As to `CCOC(=O)/C=C(\C(=O)OCC)n1cc(C)c(=O)n(Cc2cn(COCCOC(C)=O)nn2)c1=O`, the TGI in assay [1] came to 11.1 µM; in [2], 35.8 µM; in assay [3], 57.7 µM; in assay [4], 19.5 µM; in assay [5], 31.1 µM; in assay [6], 22.5 µM. The TGI in assay [7] came out at 50.5 µM; in assay [8], 30.4 µM; in assay [9], 29.8 µM; in assay [10], 22 µM; in assay [11] it was 26.9 µM; in assay [12], 63.3 µM. Besides, the TGI turned out to be 30.2 µM in [13], 80.4 µM in assay [14] and 48.7 µM in assay [15].
In the case of `CC(=S)NC=C(C(N)=O)C(N)=O`, the TGI in assay [16], in [1], in assay [2], in assay [17], in assay [3] and in assay [4] was over 100 µM in each case. Besides, the TGI in assay [5], in [6], in [18], in assay [7], in [8] and in assay [9] was over 100 µM in each case. In addition, the TGI in assay [10], in assay [12] and in assay [14] was over 100 µM in each case.
Take `O=C(Cc1ccccc1)Nc1nc2ccc(Cl)cc2c2nc(-c3ccco3)nn12`: the TGI in [16] is over 100 µM; in assay [1], over 100 µM; in [2], over 100 µM; in assay [17] it was over 100 µM; in assay [3] it was over 77.2 µM; in assay [4], over 100 µM. Besides, the TGI in assay [5], in [6], in assay [18], in assay [7], in assay [8] and in assay [9] was over 100 µM in each case. Moreover, the TGI in assay [10], in [11], in [12], in assay [13] and in assay [14] was over 100 µM throughout.
For `O=C(c1ccccc1)N1CCC(Nc2cccnc2)O1` (stereo not given), the TGI in [16], in assay [17], in assay [3], in [4], in assay [5] and in [6] was over 100 µM in each case. The TGI in [7], in assay [8], in [9], in assay [10], in assay [11] and in assay [12] was over 100 µM throughout. For the same compound, the TGI in assay [13] and in assay [14] was over 100 µM each time.
`C=CCc1cccc(/C(O)=C/C(=O)/C=C/c2ccccc2Cl)c1O`: the TGI in [1] was over 58.7 µM; in assay [2], 24.6 µM; in [17], over 100 µM; in [3], 16 µM; in assay [4], over 100 µM; in [5] it was 29.6 µM. The TGI in assay [6] is over 100 µM; in [18] it was 31 µM; in assay [7] it was 31.7 µM; in assay [8] it was 97 µM; in [9] it was 21.8 µM; in [10], over 100 µM. Further, the TGI was 32.7 µM in assay [11], over 100 µM in [12], over 100 µM in [13] and over 54.3 µM in assay [14].
Consider `COc1ccc(-n2nnc3c(C#N)c(C)c(-c4ccccc4)n3c2=O)cc1`, for which the TGI in [16] is over 100 µM; in assay [1] it was 10.6 µM; in assay [2], over 100 µM; in assay [17] it was over 26.7 µM; in assay [3] it was over 100 µM; in [4] it was over 100 µM. In addition, the TGI in assay [5] was over 100 µM; in assay [6], over 26.1 µM; in assay [7], 17 µM; in assay [8], over 100 µM; in [9], over 100 µM; in assay [10], over 100 µM. The TGI in assay [11] is over 100 µM; in assay [12], over 63.7 µM; in assay [13], over 39.3 µM; in assay [14] it was 2.65 µM; in assay [15], over 100 µM.
Regarding `N#CC(C#N)[C@@H]1CCC=C(Sc2ccccc2)[C@H]1Sc1ccccc1`, the TGI in [16] was 13.6 µM; in [1], 4.86 µM; in assay [17] it was 4.95 µM; in assay [3] it was over 27.1 µM; in assay [4], 6.07 µM; in [5], 13.6 µM. Moreover, the TGI in assay [6] amounted to 15.4 µM; in assay [18], 6.01 µM; in assay [7], 18.4 µM; in [8] it was 12.2 µM; in assay [9], 20.9 µM; in [10], 14.1 µM. Also, the TGI in assay [11] was determined as 17.6 µM; in [12], 12.5 µM; in assay [13] it was 13.6 µM; in assay [14] it was 8.4 µM; in [15], 17.2 µM.
Regarding `CN1C(CC(O)c2ccccc2)CCCC1CC(O)(c1ccccc1)c1ccccc1` (stereo not given), the TGI in [16] came out at 33.8 µM; in assay [1], 34.2 µM; in assay [2], 41.5 µM; in assay [17] it was 34.9 µM; in assay [3] it was 56.6 µM; in [4], 52.2 µM. Further, the TGI in assay [5] stood at 33.1 µM; in assay [6], 64.5 µM; in assay [18], 42.3 µM; in assay [7] it was 31 µM; in [8], 36.6 µM; in assay [9], 35.8 µM. In addition, the TGI in assay [10] worked out at 43.4 µM; in [11] it was 20.8 µM; in assay [12] it was 32.3 µM; in assay [14], 29.1 µM.
For `COC(OC)[C@@H]1OC[C@H](n2ccc(=O)[nH]c2=O)[C@H]1O`, the TGI in assay [1], in [2], in [17], in assay [3], in assay [4] and in assay [5] was over 100 µM each time. In addition, the TGI in assay [6], in assay [7], in assay [8], in assay [9], in assay [10] and in assay [11] was over 100 µM in each case. For the same compound, the TGI in assay [12], in assay [13], in [14] and in assay [15] was over 100 µM throughout.
`CCOC(=O)COc1cc(-c2ccccc2)nc2cc(F)ccc12`: the TGI in [16], in [1], in assay [2], in assay [17], in [3] and in [5] was over 100 µM each time. Moreover, the TGI in assay [6], in assay [7], in [8], in assay [9], in assay [10] and in [12] was over 100 µM throughout. Also, the TGI in [14] and in assay [15] was over 100 µM each time.
For the compound `COc1ccc(OC)c2c1ccc1c(C)c3ccccc3c(C)c12`, the TGI in assay [16], in assay [2], in assay [17], in [3], in assay [4] and in assay [5] was over 100 µM in each case. Besides, the TGI in assay [18], in [9], in [10], in [11], in assay [12] and in assay [13] was over 100 µM each time. The TGI in assay [14] and in assay [15] was over 100 µM throughout.
In the case of `CNC(=O)OCC1=C(COC(=O)NC)CN(c2ccc(OC)cc2)C1`, the TGI in assay [16], in assay [1], in assay [2], in [17], in assay [3] and in assay [4] was over 100 µM in each case. The TGI in [5], in assay [6], in assay [7], in assay [8], in assay [9] and in [10] was over 100 µM throughout. In addition, the TGI in assay [11], in assay [12], in [13], in assay [14] and in assay [15] was over 100 µM throughout.
On to `CN1CCN(c2ccc3nc(-c4ccc5nc(CCCc6ccc(N(CCCl)CCCl)cc6)[nH]c5c4)[nH]c3c2)CC1`, for which the TGI in assay [16], in [1], in assay [2], in [17], in assay [3] and in [4] was over 100 µM throughout. The TGI in assay [5], in assay [18], in assay [7], in assay [8], in assay [9] and in assay [10] was over 100 µM throughout. Besides, the TGI in assay [11], in assay [12], in assay [13], in assay [14] and in [15] was over 100 µM in each case.
With `O=C(O)c1ccc2[nH]c(=O)oc2c1`, the TGI in assay [16], in assay [1], in assay [2], in assay [17], in assay [3] and in assay [4] was over 100 µM in each case. Further, the TGI in [5], in [6], in assay [8], in assay [9], in assay [10] and in assay [12] was over 100 µM throughout. The TGI in assay [13] and in assay [14] was over 100 µM each time.
For `OCCCN=C1N=C(Cl)/C(=C\c2ccccc2)N1`, the TGI in assay [16], in assay [1], in [2], in [17], in assay [3] and in assay [4] was over 100 µM in each case. Moreover, the TGI in [5], in [6], in assay [18], in assay [7], in assay [8] and in assay [9] was over 100 µM in each case. Further, the TGI in assay [10], in assay [11], in [12], in assay [14] and in assay [15] was over 100 µM in each case.
In the case of `CC(O)/C=C/C1OC(=O)CC1Nc1ccc(C=O)cc1` (stereo not given), the TGI in [16] was over 100 µM; in assay [1], over 100 µM; in [2], over 100 µM; in assay [17], 41.9 µM; in [3] it was 73.8 µM; in assay [4] it was over 100 µM. Also, the TGI was over 100 µM in [5]; over 100 µM in [6]; 33.5 µM in assay [7]; over 100 µM in [8]; over 100 µM in [9]; over 100 µM in assay [10]. In addition, the TGI in assay [11], in [12], in assay [13], in assay [14] and in [15] was over 100 µM each time.
For the compound `COc1cccc(C=C(C#N)C#N)c1OC`, the TGI in assay [16], in assay [1], in assay [17], in assay [3], in [4] and in [5] was over 100 µM each time. Further, the TGI in assay [6], in [18], in assay [7], in assay [8], in [9] and in assay [10] was over 100 µM throughout. The TGI in [11], in assay [12], in assay [13], in assay [14] and in [15] was over 100 µM throughout.
For `O=C1c2ccccc2C(=O)c2c1sc1nc3ccccc3n21`, the TGI in [16] is 1.6 µM; in [1] it was 3.61 µM; in assay [17], 3.15 µM; in assay [3], over 100 µM; in assay [4], 6.27 µM; in assay [5], 6.34 µM. Also, the TGI in assay [6] is 4.6 µM; in assay [7] it was 43.3 µM; in [8], 3.91 µM; in assay [9], 3.74 µM; in assay [10] it was 3.84 µM; in [11], 3.89 µM. Also, the TGI in [12] was found to be 2.85 µM; in [13], 3.66 µM; in assay [14], 3.25 µM.
